From patent US11279703B2, “Fused pyrimidine compounds as BRD4 and JAK2 dual inhibitors and methods for use thereof” (APTOSE BIOSCIENCES INC., priority 2016, dated 2022)
Read-outs that look alike come from different tables or passages of the source.

Key:
JAK2 = JAK2 (Homo sapiens (Human), UniProt O60674); assay: HTRF kinase assay, JAK2; format: biochemical
Excerpt: A kinase assay with HTRF was used to observe JAK activity and calculate the IC50s of compounds disclosed herein. HTRF is an enzymatic assay used to determine the amount of phosphorylated peptide. FRET (Fluorescence Resonance Energy Transfer) is based on the transfer of energy between two fluorophores—a donor and an acceptor—when in close proximity. Molecular interactions between biomolecules can be assessed by coupling each partner with a fluorescent label and by detecting the level of energy transfer. The amount of phopshorylated peptide can be detected using a combination of a Eu 3+Cryptate labeled anti-phospho residue antibody, SA-XL665 and a biotinylated substrate. The signal is proportional to the concentration of phospho-residues.
Equipment Required • 1. […] Plate centrifuge • 3. Plate shaker • 4. […] Single channel and multi-channel pipettes • 6. Microplate reader (Pherastar)]
Stock and Final Assay Concentrations (FAC) • 1. All reference and test compounds are made at a concentration of 10 mM in DMSO. Compounds are serially diluted in DMSO and a FAC starting from 10 μM to 10 point 3 fold serial dilutions is arrived. For Ruxolitinib the starting FAC is 1 μM. FAC of DMSO is 1%. • 2. Enzyme stock and FAC
• JAK-1: Invtirogen Cat: PR8767C • JAK-2: Invtirogen Cat: PR7820B • JAK-3: Invtirogen Cat: PR7507B • 3. Substrate (synthetic peptide-Biotinylated-N-terminal tag-[…] from Biopeptide) stock and FAC
• Adenosine 5′-triphosphate disodium salt hydrate: Sigma Cat: A26209 • 5. […] Buffers • Base buffer (for 50 ml)
• HTRF buffer: • 50 mM Tris-HCl, pH—7.5 • 100 mM NaCl • 0.1% BSA • 0.05% Tween20 • 0.5 mM EDTA
To a 384 well black-plate: • 1. Add 17 μL of the buffer to each well of the 384-well black plate • 2. […] Add 5 μl of the enzyme to each well of the plate • 4. Add 10 μl of the substrate and ATP mix to all the wells • 5. Cover with plate sealer • 6. […] Incubate at room temperature for 1 hour on shaker • 8. […] Add 37.5 μL of the HTRF mix to these wells. • 9. Incubate the plate at room temperature on shaker for 45 minutes. • 10.
The percent inhibition is calculated in the excel analysis template and the IC50 values are subsequently determined using a sigmoidal dose-response curve (variable slope) using GraphPad Prism® 5 software.

BRD4-BD1 = BRD4-BD1 (Homo sapiens (Human), UniProt O60885); assay: AlphaLisa bromodomain binding assay, BRD4-BD1
[1] = Table 6, read-out: BRD4(1) IC50

Chain of JAK2 (O60674 whole entry): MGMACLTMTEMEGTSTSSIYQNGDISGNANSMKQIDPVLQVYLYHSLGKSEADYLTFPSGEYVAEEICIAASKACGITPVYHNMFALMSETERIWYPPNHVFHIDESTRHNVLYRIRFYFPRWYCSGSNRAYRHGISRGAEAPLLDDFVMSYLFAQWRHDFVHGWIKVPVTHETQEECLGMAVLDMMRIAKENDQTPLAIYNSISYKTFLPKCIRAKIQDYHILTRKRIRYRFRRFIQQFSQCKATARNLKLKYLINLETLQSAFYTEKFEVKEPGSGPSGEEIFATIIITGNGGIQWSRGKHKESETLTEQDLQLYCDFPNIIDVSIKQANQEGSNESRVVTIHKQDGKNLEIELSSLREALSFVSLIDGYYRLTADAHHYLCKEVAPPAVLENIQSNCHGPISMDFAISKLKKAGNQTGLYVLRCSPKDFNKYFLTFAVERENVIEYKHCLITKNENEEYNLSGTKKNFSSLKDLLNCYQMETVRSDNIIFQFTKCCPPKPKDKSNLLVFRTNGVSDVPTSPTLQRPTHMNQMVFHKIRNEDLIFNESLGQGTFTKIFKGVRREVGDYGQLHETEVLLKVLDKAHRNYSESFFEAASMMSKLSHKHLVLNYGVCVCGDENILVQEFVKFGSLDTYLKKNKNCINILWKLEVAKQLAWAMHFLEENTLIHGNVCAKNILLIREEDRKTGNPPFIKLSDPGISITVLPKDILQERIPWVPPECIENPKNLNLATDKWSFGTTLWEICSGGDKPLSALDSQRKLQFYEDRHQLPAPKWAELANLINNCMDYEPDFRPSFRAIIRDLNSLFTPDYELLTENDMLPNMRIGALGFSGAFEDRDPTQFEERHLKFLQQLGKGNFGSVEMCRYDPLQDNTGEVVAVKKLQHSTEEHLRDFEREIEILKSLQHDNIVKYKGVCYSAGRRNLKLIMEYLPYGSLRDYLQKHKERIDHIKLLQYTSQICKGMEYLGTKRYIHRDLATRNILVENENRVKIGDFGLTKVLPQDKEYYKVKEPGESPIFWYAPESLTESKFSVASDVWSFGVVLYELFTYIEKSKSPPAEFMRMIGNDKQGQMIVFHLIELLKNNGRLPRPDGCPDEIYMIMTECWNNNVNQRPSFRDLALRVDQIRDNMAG

CC(C)(C)S(=O)(=O)Nc1cccc(-n2ccc3cnc(Nc4cc(F)c5c(c4)CC4CNCCN54)nc32)c1 (stereo not drawn)
IC50 (JAK2; Table 6): 6 nM
IC50 (BRD4-BD1; [1]): 300 nM

CN1CCN2c3c(F)cc(Nc4ncc5ccn(-c6cccc(NS(=O)(=O)C(C)(C)C)c6)c5n4)cc3CC2C1 (stereo not drawn)
IC50 (JAK2; Table 6): 14 nM
IC50 (BRD4-BD1; [1]): 571 nM

CN(C)C1CCN(c2ccc(Nc3ncc4ccn(-c5cccc(NS(=O)(=O)C(C)(C)C)c5)c4n3)cc2)C1 (stereo not drawn)
IC50 (JAK2; Table 6): 37 nM
IC50 (BRD4-BD1; [1]): 854 nM

COc1cc(Nc2ncc3ccn(-c4cccc(NS(=O)(=O)C(C)(C)C)c4)c3n2)ccc1N1CCC(N(C)C)CC1
IC50 (JAK2; Table 6): 2 nM
IC50 (BRD4-BD1; [1]): 421 nM

COc1cc(Nc2ncc3scc(-c4cccc(NS(=O)(=O)C(C)(C)C)c4)c3n2)ccc1N1CCC(N(C)C)CC1
IC50 (JAK2; Table 6): 1 nM
IC50 (BRD4-BD1; [1]): 560 nM

CNCC1CCN(c2ccc(Nc3ncc4c(n3)N(c3cccc(NS(=O)(=O)C(C)(C)C)c3)CC4)cc2F)CC1
IC50 (JAK2; Table 6): 9 nM
IC50 (BRD4-BD1; [1]): 580 nM

COc1cc(Nc2ncc3scc(-c4cccc(NS(=O)(=O)C(C)(C)C)c4)c3n2)ccc1N1CCNCC1
IC50 (JAK2; Table 6): 4 nM
IC50 (BRD4-BD1; [1]): 356 nM

CNC1CCN(c2ccc(Nc3ncc4ccn(-c5cccc(NS(=O)(=O)C(C)(C)C)c5)c4n3)cc2F)CC1
IC50 (JAK2; Table 6): 6 nM
IC50 (BRD4-BD1; [1]): 357 nM

CNC1CCN(c2ccc(Nc3ncc4scc(-c5cccc(NS(=O)(=O)C(C)(C)C)c5)c4n3)cc2F)CC1
IC50 (JAK2; Table 6): 2 nM
IC50 (BRD4-BD1; [1]): 431 nM

CNC1CCN(C(=O)c2ccc(Nc3ncc4ccn(-c5cccc(NS(=O)(=O)C(C)(C)C)c5)c4n3)cc2F)CC1
IC50 (JAK2; Table 6): 29 nM
IC50 (BRD4-BD1; [1]): 234 nM

CNC1CCN(C(=O)c2ccc(Nc3ncc4scc(-c5cccc(NS(=O)(=O)C(C)(C)C)c5)c4n3)cc2F)CC1
IC50 (JAK2; Table 6): 12 nM
IC50 (BRD4-BD1; [1]): 298 nM

CN1CCN2c3c(F)cc(Nc4ncc5ccn(-c6ccc(F)c(NS(=O)(=O)C(C)(C)C)c6)c5n4)cc3CC2C1 (stereo not drawn)
IC50 (JAK2; Table 6): 56 nM
IC50 (BRD4-BD1; [1]): 383 nM

CC(C)(C)S(=O)(=O)Nc1cccc(-c2csc3cnc(Nc4cc(F)c5c(c4)CC4CNCCN54)nc23)c1 (stereo not drawn)
IC50 (JAK2; Table 6): 5 nM
IC50 (BRD4-BD1; [1]): 766 nM

CNC1CCN(c2ccc(Nc3ncc4ccn(-c5cccc(NS(=O)(=O)C(C)(C)C)c5)c4n3)cc2)C1 (stereo not drawn)
IC50 (JAK2; Table 6): 17 nM
IC50 (BRD4-BD1; [1]): 538 nM

CNCC1CCN(c2ccc(Nc3ncc4ccn(-c5cccc(NS(=O)(=O)C(C)(C)C)c5)c4n3)cc2F)CC1
IC50 (JAK2; Table 6): 7 nM
IC50 (BRD4-BD1; [1]): 220 nM

CN1CCN(c2ccc(Nc3ncc4ccn(-c5cccc(NS(=O)(=O)C6CC6)c5)c4n3)cc2)CC1 [drawing 74]
IC50 (JAK2; Table 5): 2.5 nM
IC50 (BRD4-BD1; Table 5, read-out: BRD4 IC50): 355 nM

CN(C)C1CCN(c2ccc(Nc3ncc4ccn(-c5cccc(NS(=O)(=O)C(C)(C)C)c5)c4n3)cc2)CC1 [drawing 75]
IC50 (JAK2; Table 5): 7.3 nM
IC50 (BRD4-BD1; Table 5, read-out: BRD4 IC50): 173 nM

CN(C)C1CCN(c2ccc(Nc3ncc4ccn(-c5cccc(NS(=O)(=O)C(C)(C)C)c5)c4n3)cc2F)CC1 [drawing 76]
IC50 (JAK2; Table 5): 3 nM
IC50 (BRD4-BD1; Table 5, read-out: BRD4 IC50): 131 nM

Cc1cnc(Nc2ccc(N3CCN(C)CC3)cc2)nc1Nc1cccc(NS(=O)(=O)C(C)(C)C)c1 [drawing 114]
IC50 (JAK2; Table 6): 12 nM
IC50 (BRD4-BD1; [1]): 211 nM

Cc1cnc(Nc2ccc(N3CCN(C)CC3)cc2)nc1Nc1cccc(NS(=O)(=O)C(C)(C)C)c1 [drawing 196]
IC50 (JAK2; Table 6): 10 nM
IC50 (BRD4-BD1; [1]): 180 nM

Cc1cnc(Nc2ccc(N3CCN(C)CC3)cc2)nc1Nc1cccc(NS(=O)(=O)C(C)(C)C)c1 [drawing 226]
IC50 (JAK2; Table 6): 7 nM
IC50 (BRD4-BD1; [1]): 221 nM

Cc1cnc(Nc2ccc(N3CCN(C)CC3)cc2)nc1Nc1cccc(NS(=O)(=O)C(C)(C)C)c1 [drawing 231]
IC50 (JAK2; Table 6): 8 nM
IC50 (BRD4-BD1; [1]): 133 nM

Cc1cnc(Nc2ccc(N3CCN(C)CC3)cc2)nc1Nc1cccc(NS(=O)(=O)C(C)(C)C)c1 [drawing 258]
IC50 (JAK2; Table 6): 10 nM
IC50 (BRD4-BD1; [1]): 255 nM

CC(C)(C)S(=O)(=O)Nc1cccc(Nc2nc(NC3CCNCC3)nc3sccc23)c1 [drawing 267]
IC50 (JAK2; Table 6): 10000 nM
IC50 (BRD4-BD1; [1]): 590 nM

CC(C)(C)S(=O)(=O)Nc1cccc(Nc2nc(NC3CCNCC3)nc3sccc23)c1 [drawing 270]
IC50 (JAK2; Table 6): 10000 nM
IC50 (BRD4-BD1; [1]): 257 nM

Cc1cnc(Nc2ccc(N3CCN(C)CC3)cc2)nc1Nc1cccc(NS(=O)(=O)C(C)(C)C)c1 [drawing 276]
IC50 (JAK2; Table 6): 8 nM
IC50 (BRD4-BD1; [1]): 164 nM

Cc1cnc(Nc2ccc(N3CCN(C)CC3)cc2)nc1Nc1cccc(NS(=O)(=O)C(C)(C)C)c1 [drawing 281]
IC50 (JAK2; Table 6): 10 nM
IC50 (BRD4-BD1; [1]): 228 nM
